“And” between values parts separate entries of the source, which are not always exact repeats. Equal entries are not always repeated.
What follows are molecules tested against Human recombinant carboxy-terminal his-tagged LDHA (amino acids 2-332) (Homo sapiens, UniProt P00338) (assay: LDHA enzyme inhibition assay (NADH fluorescence)). Conditions: LDHA IC50 (μM), 1 nM LDHA, NADH and pyruvate, stereochemistry of tested sample given.
O=C1CC(c2ccsc2)(c2cccc(CCc3ccc(F)cc3)n2)NC(=O)C1Sc1ccccc1Cl (single isomer, unassigned) [Example 293, 3-((2-chlorophenyl)thio)-6-(6-(4-fluorophenethyl)pyridin-2-yl)-6-(thiophen-3-yl)piperidine-2,4-dione] was tested, and the IC50 was 0.091 µM. In the case of O=C1CC(c2ccsc2)(c2cccc(CCc3ccc(F)cc3)n2)NC(=O)C1Sc1ccccc1Cl (single isomer, unassigned) [Example 294, 3-((2-chlorophenyl)thio)-6-(6-(4-fluorophenethyl)pyridin-2-yl)-6-(thiophen-3-yl)piperidine-2,4-dione], the IC50 is reported as 0.036 µM. In the case of O=C1CC(c2ccsc2)(c2cccc(OCc3ccc(F)cc3)n2)NC(=O)C1Sc1ccccc1Cl (single isomer, unassigned) [Example 298, 3-((2-chlorophenyl)thio)-6-(6-((4-fluorobenzyl)oxy)pyridin-2-yl)-6-(thiophen-3-yl)piperidine-2,4-dione], the IC50 is reported as 0.063 µM. For COc1ccccc1Oc1cccc(C2(c3ccsc3)CC(=O)C(Sc3ccccc3Cl)C(=O)N2)n1 (single isomer, unassigned) [Example 337, 5-(2-chlorophenyl)sulfanyl-4-hydroxy-2-[6-(2-methoxyphenoxy)-2-pyridyl]-2-(3-thienyl)-1,3-dihydropyridin-6-one], the IC50 was 0.021 µM. C[C@H](Nc1cccc(C2(c3ccsc3)CC(=O)C(Sc3ccccc3Cl)C(=O)N2)n1)c1ccc(F)cc1 (stereo in doubt) [Example 303, 3-((2-chlorophenyl)thio)-6-(6-((1-(4-fluorophenyl)ethyl)amino)pyridin-2-yl)-6-(thiophen-3-yl) piperidine-2,4-dione] showed an IC50 of 0.434 µM. C[C@@H](CC1CC1)Oc1cccc(C2(c3ccsc3)CC(=O)C(Sc3ccccc3Cl)C(=O)N2)n1 (stereo in doubt) [Example 322, 3-((2-chlorophenyl)thio)-6-(6-((1-cyclopropyl-propan-2-yl)oxy)pyridin-2-yl)-6-(thiophen-3-yl) piperidine-2,4-dione] was tested, and the IC50 was 0.012 µM. Molecule O=C1CC(c2ccsc2)(c2cccc(Br)n2)NC(=O)C1Sc1ccccc1Cl (centres unmarked) [Example 1, 6-(6-bromo-2-pyridyl)-3-(2-chlorophenyl)sulfanyl-6-(3-thienyl)piperidine-2,4-dione] has an IC50 of 0.006 µM. In the case of CC(C)Oc1cccc(C2(c3ccsc3)CC(=O)C(Sc3ccccc3Cl)C(=O)N2)n1 (centres unmarked) [Example 2, 3-(2-chlorophenyl)sulfanyl-6-(6-isopropoxy-2-pyridyl)-6-(3-thienyl)piperidine-2,4-dione], the IC50 is reported as 0.082 µM. With O=C1CC(c2ccsc2)(c2cccc(Cc3cccc(F)c3)n2)NC(=O)C1Sc1ccccc1Cl (centres unmarked) [Example 5, 3-(2-chlorophenyl)sulfanyl-6-[6-[(3-fluorophenyl)methyl]-2-pyridyl]-6-(3-thienyl)piperidine-2,4-dione] the IC50 was 0.028 µM and 0.009 µM and 0.066 µM. For CC1CN(c2ccc(C3(c4ccsc4)CC(=O)C(Sc4ccccc4Cl)C(=O)N3)cc2)CCO1 (centres unmarked) [Example 7, 3-(2-chlorophenyl)sulfanyl-6-[4-(2-methylmorpholin-4-yl)phenyl]-6-(3-thienyl)piperidine-2,4-dione], the IC50 was 0.009 µM. O=C1CC(c2ccc(C3=CCCCC3)cc2)(c2ccsc2)NC(=O)C1Sc1ccccc1Cl (centres unmarked) [Example 8, 3-(2-chlorophenyl)sulfanyl-6-[4-(cyclohexen-1-yl)phenyl]-6-(3-thienyl)piperidine-2,4-dione] showed an IC50 of 0.004 µM. Molecule CN1C(=O)C(Sc2ccccc2Cl)C(=O)CC1(c1ccsc1)c1cccc(Nc2ccc(F)cc2)n1 (centres unmarked) [Example 11, 3-(2-chlorophenyl)sulfanyl-6-[6-(4-fluoroanilino)-2-pyridyl]-1-methyl-6-(3-thienyl)piperidine-2,4-dione] has an IC50 of 0.002 µM. CN1C(=O)C(Sc2ccccc2Cl)C(=O)CC1(c1ccsc1)c1cccc(Oc2ccc(F)cc2)n1 (centres unmarked) [Example 12, 3-(2-chlorophenyl)sulfanyl-6-[6-(4-fluorophenoxy)-2-pyridyl]-1-methyl-6-(3-thienyl)piperidine-2,4-dione] was tested, and the IC50 was 0.027 µM. With CN1C(=O)C(Sc2ccccc2Cl)C(=O)CC1(c1ccsc1)c1ccccc1F (centres unmarked) [Example 13, 3-(2-chlorophenyl)sulfanyl-6-(2-fluorophenyl)-1-methyl-6-(3-thienyl)piperidine-2,4-dione] the IC50 was 0.058 µM. O=C1CC(c2ccsc2)(c2cccc(OCCC3COC3)n2)NC(=O)C1Sc1ccccc1Cl (centres unmarked) [Example 16, 3-(2-chlorophenyl)sulfanyl-6-[6-[2-(oxetan-3-yl)ethoxy]-2-pyridyl]-6-(3-thienyl)piperidine-2,4-dione] was tested, and the IC50 was 0.105 µM and 0.076 µM. O=C1CC(c2ccsc2)(c2cccc(Oc3ccccc3-c3cn[nH]c3)n2)NC(=O)C1Sc1ccccc1Cl (centres unmarked) [Example 18, 3-(2-chlorophenyl)sulfanyl-6-[6-[2-(1H-pyrazol-4-yl)phenoxy]-2-pyridyl]-6-(3-thienyl)piperidine-2,4-dione] gave an IC50 of 0.012 µM. In the case of O=C1CC(c2ccsc2)(c2cccc(OCCC3CC3(F)F)n2)NC(=O)C1Sc1ccccc1Cl (centres unmarked) [Example 20, 3-(2-chlorophenyl)sulfanyl-6-[6-[2-(2,2-difluorocyclopropyl)ethoxy]-2-pyridyl]-6-(3-thienyl)piperidine-2,4-dione], the IC50 is reported as 0.039 µM. For Cn1nncc1-c1ccccc1Oc1cccc(C2(c3ccsc3)CC(=O)C(Sc3ccccc3Cl)C(=O)N2)n1 (centres unmarked) [Example 21, 3-(2-chlorophenyl)sulfanyl-6-[6-[2-(3-methyltriazol-4-yl)phenoxy]-2-pyridyl]-6-(3-thienyl)piperidine-2,4-dione], the IC50 was 0.119 µM. Molecule CN1C(=O)C(Sc2ccccc2Cl)C(=O)CC1(c1ccsc1)c1cccc(OC2CCOCC2)c1 (centres unmarked) [Example 23, 3-(2-chlorophenyl)sulfanyl-1-methyl-6-(3-tetrahydropyran-4-yloxyphenyl)-6-(3-thienyl)piperidine-2,4-dione] has an IC50 of 0.026 µM. Work on O=C1CC(c2ccsc2)(c2ccc(N3CCOCC3)c(Br)n2)NC(=O)C1Sc1ccccc1Cl (centres unmarked) [Example 25, 6-(6-bromo-5-morpholino-2-pyridyl)-3-(2-chlorophenyl)sulfanyl-6-(3-thienyl)piperidine-2,4-dione] yielded an IC50 of 0.023 µM. With O=C1CC(c2ccsc2)(c2ccc(N3CCOCC3)c(Nc3ccc(F)cc3)n2)NC(=O)C1Sc1ccccc1Cl (centres unmarked) [Example 26, 3-(2-chlorophenyl)sulfanyl-6-[6-(4-fluoroanilino)-5-morpholino-2-pyridyl]-6-(3-thienyl)piperidine-2,4-dione] the IC50 was 0.038 µM. In the case of O=C1CC(c2ccsc2)(c2ccc(N3CCOCC3)c(Oc3ccc(F)cc3)n2)NC(=O)C1Sc1ccccc1Cl (centres unmarked) [Example 27, 3-(2-chlorophenyl)sulfanyl-6-[6-(4-fluorophenoxy)-5-morpholino-2-pyridyl]-6-(3-thienyl)piperidine-2,4-dione], the IC50 is reported as 0.05 µM. O=C1CC(c2ccc(OCCCO)cc2)(c2ccsc2)NC(=O)C1Sc1ccccc1Cl (centres unmarked) [Example 28, 3-(2-chlorophenyl)sulfanyl-6-[4-(3-hydroxypropoxy)phenyl]-6-(3-thienyl)piperidine-2,4-dione] gave an IC50 of 0.031 µM. Molecule O=C1CC(c2ccc(OCCO)cc2)(c2ccsc2)NC(=O)C1Sc1ccccc1Cl (centres unmarked) [Example 29, 3-(2-chlorophenyl)sulfanyl-6-[4-(2-hydroxyethoxy)phenyl]-6-(3-thienyl)piperidine-2,4-dione] has an IC50 of 0.009 µM. COCCOc1ccc(C2(c3ccsc3)CC(=O)C(Sc3ccccc3Cl)C(=O)N2)cc1 (centres unmarked) [Example 30, 3-(2-chlorophenyl)sulfanyl-6-[4-(2-methoxyethoxy)phenyl]-6-(3-thienyl)piperidine-2,4-dione] showed an IC50 of 0.053 µM. For COCCCOc1ccc(C2(c3ccsc3)CC(=O)C(Sc3ccccc3Cl)C(=O)N2)cc1 (centres unmarked) [Example 31, 3-(2-chlorophenyl)sulfanyl-6-[4-(3-methoxypropoxy)phenyl]-6-(3-thienyl)piperidine-2,4-dione], the IC50 was 0.008 µM. Molecule O=C1CC(c2ccsc2)(c2ccc3ccccc3c2)NC(=O)C1Sc1ccccc1Cl (centres unmarked) [Example 32, 3-(2-chlorophenyl)sulfanyl-6-(2-naphthyl)-6-(3-thienyl)piperidine-2,4-dione] has an IC50 of 0.01 µM. CN1C(=O)C(Sc2ccccc2Cl)C(=O)CC1(c1ccsc1)c1cccc(NC2CCOCC2)c1 (centres unmarked) [Example 34, 3-(2-chlorophenyl)sulfanyl-1-methyl-6-[3-(tetrahydropyran-4-ylamino)phenyl]-6-(3-thienyl)piperidine-2,4-dione] showed an IC50 of 0.033 µM. O=C1CC(c2ccsc2)(c2ccc(N3CCOCC3)cc2O)NC(=O)C1Sc1ccccc1Cl (centres unmarked) [Example 35, 3-(2-chlorophenyl)sulfanyl-6-(2-hydroxy-4-morpholino-phenyl)-6-(3-thienyl)piperidine-2,4-dione] showed an IC50 of 0.007 µM. O=C1CC(c2ccsc2)(c2ccccc2O)NC(=O)C1Sc1ccccc1Cl (centres unmarked) [Example 36, 3-(2-chlorophenyl)sulfanyl-6-(2-hydroxyphenyl)-6-(3-thienyl)piperidine-2,4-dione] was tested, and the IC50 was 0.021 µM and 0.008 µM and 0.025 µM. For O=C1CC(c2ccc(N3CCOCC3)cc2)(c2cccc(Br)n2)NC(=O)C1Sc1ccccc1Cl (centres unmarked) [Example 38, 6-(6-bromopyridin-2-yl)-3-((2-chlorophenyl)thio)-6-(4-morpholinophenyl)piperidine-2,4-dione], the IC50 was 0.004 µM. In the case of O=C1CC(c2ccc(N3CCOCC3)cc2)(c2cccc(Nc3ccc(F)cc3)n2)NC(=O)C1Sc1ccccc1Cl (centres unmarked) [Example 39, 3-((2-chlorophenyl)thio)-6-(6-((4-fluorophenyl)amino)pyridin-2-yl)-6-(4-morpholinophenyl)piperidine-2,4-dione], the IC50 is reported as 0.003 µM and 0.012 µM. O=C1CC(c2ccc(N3CCOCC3)cc2)(c2cccc(Oc3ccc(F)c(F)c3)n2)NC(=O)C1Sc1ccccc1Cl (centres unmarked) [Example 40, 3-(2-chlorophenyl)sulfanyl-6-[6-(3,4-difluorophenoxy)-2-pyridyl]6-(4-morpholinophenyl)piperidine-2,4-dione] showed an IC50 of 0.036 µM. For O=C1CC(c2ccc(N3CCOCC3)cc2)(c2cccc(OC3CCCCC3)n2)NC(=O)C1Sc1ccccc1Cl (centres unmarked) [Example 41, 3-((2-chlorophenyl)thio)-6-(6-(cyclohexyloxy)pyridin-2-yl)-6-(4-morpholinophenyl)piperidine-2,4-dione], the IC50 was 0.016 µM. In the case of O=C1CC(c2ccc(N3CCOCC3)cc2)(c2cscn2)NC(=O)C1Sc1ccccc1Cl (centres unmarked) [Example 42, 3-((2-chlorophenyl)thio)-6-(4-morpholinophenyl)-6-(thiazol-4-yl) piperidine-2,4-dione], the IC50 is reported as 0.005 µM and 0.01 µM and 0.017 µM.

From US20170001990A1 (Genentech, Inc., priority 2014, published 2017)
